Structures can show the parent of a compound that is named as a salt.
Legend:
[1] = tested on: human umbilical vein endothelial cells (HUVECs) in co-culture with normal human dermal fibroblasts (NHDF); experiment: in vitro angiogenesis assay, HUVEC-NHDF co-culture, CD31 immunostaining; format: cell-based; conditions: for inhibition of angiogenesis compared with (S)-levamisole hydrochloride (1): Figure 5, Table 1
Description: The antiangiogenic effects of the compounds were determined in a previously developed assay, designed to evaluate the growth and differentiation of human umbilical vein endothelial cells (HUVECs) in co-culture with normal human dermal fibroblasts (NHDF). […] The cluster morphology known from (S)-levamisole, was also observed for tetramisole (2) (Figure 5B and Table 1), p-bromolevamisole (3) (Figure 5C and Table 1), and N-methyllevamisoles (7a, b), with the latter mentioned showing a slightly more pronounced effect (Figure 5E and F, Figure 6 A–D, Table 1). […] Compound 4 (Figure 5D and Table 1), on the other hand, inhibited the capillary network formation to give small cords exclusively, which is reminiscent of the effect of suramin (5) (Figure 5N and Table 1), another well-known angiogenesis inhibitor [44], [51].
Co-culture cell assays were performed according to a method described previously, [44]. Briefly, 10^3 NHDFs were cultured in each well of a 96-well microtiter plate in NHDF standard medium (100 μL, FGM-2 Bullet kit) at 37°C in an atmosphere containing 5% CO2. After 3 days the medium was removed and 10^3 HUVECs were seeded onto the NHDF in TFSM2 medium (135 μL). The samples of the individual compounds were prepared by weight and dissolved in a concentration of […] in DMSO, PBS, or Milli-Q water followed by pH adjustment, and sterile filtration through 0.22 μm filters. Medium, buffer controls or test samples of 15 µL were added to each well containing the HUVEC–NHDF co-culture and were incubated for 3 days. Experiments were repeated 2–4 times with identical results.
HUVEC and fibroblasts were stained with a CD31 antibody according to the method previously described, [44]. Briefly, the cells were washed with PBS, fixed with ethanol, blocked with TTN buffer, incubated with mouse anti-human CD31 diluted 1∶250 in TTN buffer, washed in TTN buffer and incubated with alkaline phosphatase-conjugated goat anti-mouse IgG diluted 1∶1000 in TTN buffer. Bound antibody was subsequently visualised with BCIP/NBT and inspected in an Olympus IX70 microscope and photographed with an Olympus DP12 digital camera (Magnification: 40x). Image analysis was carried out using the program AnalySIS (Soft Imaging Systems, Münster, Germany).

[2] = biological target: T1, human placenta alkaline phosphatase (HPAP) (Homo sapiens, UniProt P05187); experiment: Alkaline phosphatase assay (p-nitrophenyl phosphate), human placenta enzyme; format: biochemical
T1 construct: alkaline phosphatase (0.01 U/mL) from human placenta or bovine kidneys; from tissue; host or cells: human placenta
Description: (§1) The levamisole derivatives were diluted to 2.5, 5 and 10 mM in DMSO. Samples (10 µL) and 90 µL solution of alkaline phosphatase (0.01 U/mL) from human placenta or bovine kidneys diluted in substrate buffer were added to a 96-well microtiter plate and incubated for 35 minutes at room temperature. Hereafter, 100 µL p-nitrophenyl phosphate (2 mg/mL) were added, and the plate was read at 405 nm with background subtraction at 650 nm on a Versamax Elisa reader (Molecular Devices, Sunnyvale, CA, USA) after 24 and 35 min. Results were obtained as the mean of double determinations. The EC50 values were read from the curve at half maximal absorbance.

[3] = biological target: T2, bovine kidney tissue non-specific alkaline phosphatase (TNAP) (Bos taurus, UniProt P09487); experiment: Alkaline phosphatase assay (p-nitrophenyl phosphate), bovine kidney enzyme; format: biochemical
T2 construct: alkaline phosphatase (0.01 U/mL) from human placenta or bovine kidneys; from tissue; host or cells: bovine kidneys
T2 sequence (P09487 18-499 limits assumed): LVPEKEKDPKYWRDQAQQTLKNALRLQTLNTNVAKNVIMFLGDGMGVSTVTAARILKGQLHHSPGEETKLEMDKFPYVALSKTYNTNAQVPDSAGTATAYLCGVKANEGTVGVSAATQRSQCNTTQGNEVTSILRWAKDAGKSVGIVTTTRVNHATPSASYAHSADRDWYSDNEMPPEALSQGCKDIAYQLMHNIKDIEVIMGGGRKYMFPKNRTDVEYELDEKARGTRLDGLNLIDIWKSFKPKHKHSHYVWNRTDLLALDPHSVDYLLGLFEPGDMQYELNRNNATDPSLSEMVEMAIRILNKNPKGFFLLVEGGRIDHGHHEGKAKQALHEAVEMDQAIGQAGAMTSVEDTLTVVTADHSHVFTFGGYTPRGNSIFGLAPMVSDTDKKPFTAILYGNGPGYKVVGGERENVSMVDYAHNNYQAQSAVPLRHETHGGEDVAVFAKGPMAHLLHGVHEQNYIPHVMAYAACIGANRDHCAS
Description: as §1

sirtuin 1 (SIRT1) [4] = biological target: T3, sirtuin 1 (SIRT1) (Homo sapiens, UniProt Q96EB6); experiment: SIRT1 inhibition assay (Fluor-de-Lys fluorogenic); format: biochemical; conditions: for inhibition of SIRT1 deacetylase activity: standard fluorogenic assay in vitro
T3 construct: purchased Biomol BML-AK555
Description: The assay was performed according to protocols provided by the supplier (Biomol, BML-AK555). Briefly, the dose–response experiments were performed in black low binding NUNC 96-well microtiter plates. The dilution series were prepared in Milli-Q water from 100 mM DMSO stock solutions. Fluor-de-Lys SIRT1 substrate (250 μM), NAD^+ ([…]), and SIRT1 (2 U/well) were incubated in SIRT assay buffer prepared as described in the Biomol product sheets [Tris/Cl (50 mM), NaCl (137 mM), KCl (2.7 mM), MgCl2 (1 mM), pH 8.0, 1 mg/mL bovine serum albumin] in the presence or absence of the appropriate dilution of compound 7a or suramin. After 1 hour at 37°C, nicotinamide (2 mM) and developer (50 μL, 2×) were added, and the assay development was allowed to proceed for 15–30 minutes at room temperature, before the plate was read using a Tecan plate reader with excitation at 360 nm and emission at 460 nm. Two individual assays were performed in duplicate.

sirtuin 1 (SIRT1) [5] = biological target: T3, sirtuin 1 (SIRT1); experiment: SIRT1 activation assay (Fluor-de-Lys fluorogenic); format: biochemical; conditions: Figure 7
Description: The assay was essentially performed as described above for the deacetylase inhibition, but with different concentrations of enzyme and substrate [Fluor-de-Lys SIRT1 substrate (25 μM), NAD^+ (25 μM), SIRT1 (1 U/well)], and using resveratrol as positive control. Two individual assays were performed in duplicate.

[6] = concentration not given, results not shown
[7] = 1 mM, medium control 10.2, DMSO 8.4

T1 sequence (P05187 23-506 limits assumed): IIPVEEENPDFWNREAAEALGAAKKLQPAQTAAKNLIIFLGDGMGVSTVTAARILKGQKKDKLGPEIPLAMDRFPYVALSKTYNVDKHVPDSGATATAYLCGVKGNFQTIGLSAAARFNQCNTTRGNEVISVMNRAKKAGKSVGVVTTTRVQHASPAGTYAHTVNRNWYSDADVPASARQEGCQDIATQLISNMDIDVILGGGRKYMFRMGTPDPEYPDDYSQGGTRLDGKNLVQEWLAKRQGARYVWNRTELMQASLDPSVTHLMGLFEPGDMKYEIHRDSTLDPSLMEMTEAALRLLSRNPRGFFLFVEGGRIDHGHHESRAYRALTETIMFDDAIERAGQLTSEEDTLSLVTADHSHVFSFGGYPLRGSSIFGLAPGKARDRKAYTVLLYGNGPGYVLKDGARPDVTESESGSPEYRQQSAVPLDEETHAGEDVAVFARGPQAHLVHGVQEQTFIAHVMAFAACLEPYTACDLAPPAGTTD
T3 sequence (Q96EB6 whole entry): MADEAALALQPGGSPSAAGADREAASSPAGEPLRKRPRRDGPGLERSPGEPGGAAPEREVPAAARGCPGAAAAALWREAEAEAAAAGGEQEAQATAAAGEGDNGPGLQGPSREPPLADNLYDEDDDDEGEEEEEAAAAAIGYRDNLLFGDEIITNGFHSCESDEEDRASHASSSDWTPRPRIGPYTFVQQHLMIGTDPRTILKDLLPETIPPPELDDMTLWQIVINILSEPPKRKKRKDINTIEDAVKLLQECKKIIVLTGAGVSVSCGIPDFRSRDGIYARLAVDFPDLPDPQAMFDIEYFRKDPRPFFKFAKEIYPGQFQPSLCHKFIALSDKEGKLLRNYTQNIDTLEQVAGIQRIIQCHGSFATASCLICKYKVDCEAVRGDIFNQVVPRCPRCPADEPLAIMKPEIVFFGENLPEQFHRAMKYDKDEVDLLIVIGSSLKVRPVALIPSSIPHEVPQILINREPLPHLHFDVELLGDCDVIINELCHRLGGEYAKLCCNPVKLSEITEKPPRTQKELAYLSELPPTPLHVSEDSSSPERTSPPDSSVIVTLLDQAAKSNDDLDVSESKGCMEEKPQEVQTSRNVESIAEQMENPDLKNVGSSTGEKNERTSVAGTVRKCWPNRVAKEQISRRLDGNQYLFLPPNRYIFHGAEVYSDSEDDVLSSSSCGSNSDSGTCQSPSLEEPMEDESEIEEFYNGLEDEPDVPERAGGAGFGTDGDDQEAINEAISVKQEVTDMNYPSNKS

## O=C(O)CN(CCO)CCO [BICINE, reference compound]
[1]; 10 mM
  effect in the angiogenesis assay: Neither BIS-TRIS nor BICINE showed any effects

## CC[N+]1=C2SCCN2C[C@@H]1c1ccccc1 [Compound 8a, N-ethyllevamisole iodide]
[1]; 0.7 mM
  Area % (percent of the area covered by HUVEC as observed by CD31 staining): 5.2%
  Grading: +
  Morphology: Mixed
[2]
  IC50: > 2000 µM
[3]
  IC50: > 2000 µM

## O=C(O)CNC(CO)(CO)CO [TRICINE, reference compound]
[1]; [6]
  effect in the angiogenesis assay: neither showed an effect

## Nc1ccc(-c2cn3c(n2)SCC3)cc1 [Compound 4, 4-(2,3-dihydroimidazo-[2,1-b]thiazol-6-yl)aniline, reference compound]
[1]; 1 mM
  Grading: +++ (cords with area <4%)
  Morphology: Cords
[1]; [7]
  Area % (percent of the area covered by HUVEC as observed by CD31 staining): 2.0%
[1]
  inhibition of angiogenesis compared with (S)-levamisole hydrochloride (1): more potent than (S)-levamisole hydrochloride

## CC[N+]1=C2SCCN2C[C@@H]1c1ccccc1 [Compound 8b, N-ethyllevamisole trifluoroacetate]
[1]; 0.2 mM
  Area % (percent of the area covered by HUVEC as observed by CD31 staining): 5.4%
  Grading: +
  Morphology: Mixed

## c1ccc(C2CN3CCSC3=N2)cc1 (racemic) [Compound 2, (±)-levamisole, reference compound]
[1]; 1 mM
  Grading: ++ (clusters with area >4%)
  Morphology: Clusters
[1]; [7]
  Area % (percent of the area covered by HUVEC as observed by CD31 staining): 8.0%
[1]
  inhibition of angiogenesis compared with (S)-levamisole hydrochloride (1): same effect as the enantiomerically pure parent compound
[2]
  IC50: 1200 µM
[3]
  IC50: 1000 µM

## c1ccc([C@H]2CN3CCSC3=[N+]2CC2CCCCC2)cc1 [Compound 12, (S)-N-Cyclohexylmethylenelevamisole]
[1]; 0.1 mM
  Area % (percent of the area covered by HUVEC as observed by CD31 staining): 3.7%
  Grading: +
  Morphology: Mixed
[2]
  IC50: > 2000 µM
[3]
  IC50: > 2000 µM

## O=S(=O)(O)CCN1CCN(CCO)CC1 [HEPES, reference compound]
[1]; [6]
  effect in the angiogenesis assay: neither showed an effect

## c1ccc(C[N+]2=C3SCCN3C[C@@H]2c2ccccc2)cc1 [Compound 11b, N-benzyllevamisole trifluoroacetate]
[1]; 0.4 mM
  Area % (percent of the area covered by HUVEC as observed by CD31 staining): 4.0%
  Grading: +
  Morphology: Mixed
[2]
  IC50: > 2000 µM
[3]
  IC50: > 2000 µM

## C[N+]1=C2SCCN2C[C@@H]1c1ccccc1 [Compound 7b, N-methyllevamisole trifluoroacetate]
[1]; 1 mM
  Grading: ++++ (clusters with area <4%)
  Morphology: Clusters
[1]; [7]
  Area % (percent of the area covered by HUVEC as observed by CD31 staining): 3.3%
[1]
  inhibition of angiogenesis compared with (S)-levamisole hydrochloride (1): more potent than (S)-levamisole hydrochloride
[2]
  IC50: > 2000 µM
[3]
  IC50: > 2000 µM
[3]; at 2 mM or higher
  inhibition of tissue non-specific alkaline phosphatase: no inhibition

## OCCN(CCO)C(CO)(CO)CO [BIS-TRIS, reference compound]
[1]; 10 mM
  effect in the angiogenesis assay: Neither BIS-TRIS nor BICINE showed any effects

## c1ccc(C[N+]2=C3SCCN3C[C@@H]2c2ccccc2)cc1 [Compound 11a, N-benzyllevamisole bromide]
[1]; 0.7 mM
  Area % (percent of the area covered by HUVEC as observed by CD31 staining): 2.8%
  Grading: +
  Morphology: Mixed

## C[N+]1=C2SCCN2C[C@@H]1c1ccccc1 [Compound 7a, N-methyllevamisole triflate]
[1]; 1 mM
  Grading: ++++ (clusters with area <4%)
  Morphology: Clusters
[1]; [7]
  Area % (percent of the area covered by HUVEC as observed by CD31 staining): 2.8%
[1]
  inhibition of angiogenesis compared with (S)-levamisole hydrochloride (1): more potent than (S)-levamisole hydrochloride
[1]; titration experiments, Figure 6F
  concentration at which the cluster-inducing effect is already exerted (titration): 30 µM
[2]
  IC50: > 2000 µM
[3]
  IC50: 100 µM
Sirtuin 1 (SIRT1) [4]; 1 μM
  SIRT1 inhib. (1 μM): Not active^b
Sirtuin 1 (SIRT1) [4]; at 10 μM and 100 μM, data not shown
  deacetylation compared to the control wells: elevated values of deacetylation
Sirtuin 1 (SIRT1) [4]
  inhibition of SIRT1 deacetylase activity: no inhibitory effect
Sirtuin 1 (SIRT1) [5]
  activation of SIRT1 compared to resveratrol: ruled out interaction with this regulatory enzyme

## Cc1ccc(C(=O)Nc2ccc(S(=O)(=O)O)c3cc(S(=O)(=O)O)cc(S(=O)(=O)O)c23)cc1NC(=O)c1cccc(NC(=O)Nc2cccc(C(=O)Nc3cc(C(=O)Nc4ccc(S(=O)(=O)O)c5cc(S(=O)(=O)O)cc(S(=O)(=O)O)c45)ccc3C)c2)c1 [Compound 5, suramin, reference compound]
[1]; 1 mM
  Morphology: Cords
[1]; [7]
  Area % (percent of the area covered by HUVEC as observed by CD31 staining): 2.2%
[3]
  IC50: > 2000 µM
Sirtuin 1 (SIRT1) [4]; read-out: SIRT1 inhib. (1 μM)
  inhibition at 1 µM: > 90%
Sirtuin 1 (SIRT1) [4]
  inhibition of SIRT1 deacetylase activity: potently inhibited SIRT1

## NC(CO)(CO)CO [TRIZMA, reference compound]
[1]; [6]
  effect in the angiogenesis assay: neither showed an effect

## Brc1ccc([C@H]2CN3CCSC3=N2)cc1 [Compound 3, (–)-p-bromolevamisole oxalate, reference compound]
[1]; 1 mM
  Grading: ++++ (clusters with area <4%)
  Morphology: Clusters
[1]; [7]
  Area % (percent of the area covered by HUVEC as observed by CD31 staining): 3.4%
[1]
  inhibition of angiogenesis compared with (S)-levamisole hydrochloride (1): more potent than (S)-levamisole hydrochloride
[2]
  IC50: 700 µM
[3]
  IC50: > 2000 µM

## Cn1ccnc1 [N-methylimidazole, reference compound]
[1]; 1 mM
  effect in the angiogenesis assay: no effect
[1]; 10 mM
  effect in the angiogenesis assay: had an effect

## CCCC[N+]1=C2SCCN2C[C@@H]1c1ccccc1 [Compound 10, (S)-N-(n-Butyl)-levamisole trifluoroacetate]
[1]; 0.3 mM
  Area % (percent of the area covered by HUVEC as observed by CD31 staining): 5.0%
  Grading: +
  Morphology: Mixed

## CC(C)[N+]1=C2SCCN2C[C@@H]1c1ccccc1 [Compound 9, (S)-N-Isopropyllevamisole trifluoroacetate]
[1]; 0.6 mM
  Area % (percent of the area covered by HUVEC as observed by CD31 staining): 2.6%
  Grading: +
  Morphology: Mixed
[2]
  IC50: > 2000 µM
[3]
  IC50: > 2000 µM

— paper PMC3443238, “Synthesis and Antiangiogenic Activity of N-Alkylated Levamisole Derivatives” (PLoS ONE, 2012)
